Results from patent US5270339A, “Phenoxybenzene derivative” (Kanagafuchi Kagaku Kogyo Kabushiki Kaisha, priority 1991, dated 1993).

Columns and labels:
[1] = Acute toxicity test, oral; assay type: in vivo, ddY male mice; conditions: mouse, in vivo, ddY mice, 2 weeks observation
Description: (§1) With respect to the compounds 1 to 86 shown in Table 1 as test compounds, the acute toxicity was examined using ddY mice according to the following method.
(§2) In each group, six male ddY mice weighing 27 to 30 g were employed. The compounds 1 to 86 suspended in an aqueous solution of 0.5% sodium carboxymethylcellulose were administered orally in a volume of 0.1 ml/10 g body weight. […] The LD50 (mg/kg) values were estimated from the ratio of the number of dead mice to the number of mice used.

[2] = tested on: experimental amnesia in mice induced by cycloheximide; test: Anti-amnesic effect: passive avoidance task (step-through), cycloheximide-induced amnesia; assay type: in vivo, ddY male mice; conditions: for Step-through latency: mean of group
Description: (§3) As experimental animals, Wistar male rats and ddY male mice were used for the tests after they were housed for a week under every 12 hours' dark-light cycle at room temperature of 24° to 26° C.
The effect on experimental amnesia in mice induced by cycloheximide was evaluated.
The experiment was carried out using an experimental apparatus of passive avoidance task for mice (made by Ohara-ika-sangyo K. K.) comprising a box divided into the two compartments of dark and light. That is, the dark compartment [a box having a reverse trapezoid cross section (height: 8 cm, base line: 5 cm, oblique line: 9.5 cm) and having the length of 14 cm] was shield from a light with a black plastic case and was floored with stainless grids for giving an electrical shock so that an electricity might be turned on a determined time after interception of a photobeam placed in the dark compartment. The light compartment made of transparent plastic (a box of the same shape as that of the dark compartment having the length of 16 cm, lightened from a location spaced 25 cm above by a 60 W electric lamp) was provided adjacent to the dark compartment. Between the two compartments, there was provided a circular entrance having the diameter of 3 cm with a guillotine door which could be opened and closed. By using the above-mentioned dark-light box, the experiment was carried out according to the following procedure.
A mouse (5 week-old) previously conditioned in the dark-light box was put in the light compartment and the guillotine door was opened. Three seconds after the mouse moved into the dark compartment and interrupted the photobeam, 0.3 mA electrical shock was given to limbs for 3 seconds from the floor grid (aquisition trial). Just after the mouse rushed into the light compartment, the door was shut and the […] in the light compartment was picked out to return to his home cage. After 24 hours, the mouse was placed again in the light compartment and the period from the opening of the guillotine door to the time the mouse completely entered the dark compartment was recorded maximally 300 seconds as a step-through latency (retention trial).
The amnesia was induced by subcutaneous injection of cycloheximide (120 mg/kg) dissolved in saline 10 minutes before the aquisition trial. As a control, the same amount of saline alone was administered. […]
A ratio of number of mice showing the step-through latency of more than 100 seconds in the group was defined as a ratio of memory for convenience's sake.
The step-through latency in Table 2 was the mean value for each treated group.

M1 receptor = biological target: T1, M1 receptor (Rattus norvegicus, UniProt P08482); test: Receptor binding activity, inhibition of [3H]pyrenzepine binding to M1; conditions: 1 nM [3H]pyrenzepine, rat's brain except cerebellum; for inhibition at 10 µM: 10 μM test compound; for inhibition at 1 µM: 1 μM test compound
T1 construct: rat's brain except for cerebellum was homogenized; from tissue; host or cells: rat brain except cerebellum, homogenate
T1 sequence (P08482 1-460): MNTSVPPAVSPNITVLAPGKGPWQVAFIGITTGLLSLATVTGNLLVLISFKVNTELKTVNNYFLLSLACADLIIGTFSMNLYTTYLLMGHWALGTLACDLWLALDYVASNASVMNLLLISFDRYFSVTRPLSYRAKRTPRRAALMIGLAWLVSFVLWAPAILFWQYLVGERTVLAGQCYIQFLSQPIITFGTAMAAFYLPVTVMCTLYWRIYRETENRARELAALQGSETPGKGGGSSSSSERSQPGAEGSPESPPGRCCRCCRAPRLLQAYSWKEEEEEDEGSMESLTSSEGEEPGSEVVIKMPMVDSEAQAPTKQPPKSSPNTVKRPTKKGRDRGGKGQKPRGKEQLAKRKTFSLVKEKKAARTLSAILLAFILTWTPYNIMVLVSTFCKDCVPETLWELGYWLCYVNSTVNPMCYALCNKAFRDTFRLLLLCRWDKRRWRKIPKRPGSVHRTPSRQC
Description: The binding ability of the test compounds to M1 was determined according to a modification of the method of Watson et al. (Life Sci., 32, 3001 (1983)). […] The mixture was incubated for 1 hour. The inhibition rate (%) of the binding with [3H]pyrenzepine was evaluated. The higher inhibition means the higher affinity of the test compound for M1 receptor.

ddY mice = test: Acute toxicity test, oral; assay type: in vivo, ddY male mice; conditions: dose of 200 mg/kg, 2 weeks
Description: as §1, §2

[3] = tested on: forced swimming test with rats (duration of immobility); test: Antidepressant activity: forced swimming test using rats; assay type: in vivo, Wistar male rats; conditions: p.o., 30 mg/kg
Description: as §3
That is, a rat (5 week-old) was placed into a glass cylinder having the inside diameter of 18 cm and the height of 40 cm which contained water (water temperature: 25° C.) up to its height of 15 cm. After 15 minutes, the rat was picked up followed by drying and then returned to his home cage. After 24 hours, the rat was again placed into the water in the same cylinder. The duration of immobility (the time rat kept motionless) was accumulatively measured with a stopwatch for five minutes (a five minutes' test). Each test compound was suspended in saline. The administration was carried out three times, at 24, 5 and 1 hour before the five minutes' test in case of an intraperitoneal administration or with only a single administration at 1 hour before the five minutes' test in case of an oral administration to examine the antidepressant effect.
The duration of immobility in Table 4 is the mean value for […] in each group. Suppression is expressed as a ratio in percentage of a reduction of the duration of immobility in the group administered with the test compound to that in the control group administered with saline alone.

[4] = Mus musculus, 1 mg/kg oral, mice with latency > 100 seconds, read-out: Ratio of memory
[5] = Mus musculus, 3 mg/kg oral, mice with latency > 100 seconds, read-out: Ratio of memory

Row | SMILES | LD50 at 336 h [1] [mg/kg] | Step-through latency ([2]; 1 mg/kg oral) [s] | responders at 1 mg/kg [2, 4] [%] | inhibition at 10 µM (M1 receptor) [%] | inhibition at 1 µM (M1 receptor) [%] | other results
1 | NC(=O)CN1CCC(=Cc2cccc(Oc3ccccc3)c2)C1=O [Compound 32] | ≥ 500 | 94 | 50 | 91 |  | 
2 | O=C1NC(N2CCCC2)CC1=Cc1cccc(Oc2ccccc2)c1 (centres unmarked) [Compound 59] | ≥ 500 |  |  | 56 |  | Step-through latency ([2]; 3 mg/kg oral): 157 s; responders at 3 mg/kg [2, 5]: 50%
3 | C(=C1CCNC1)c1cccc(Oc2ccccc2)c1 [Compound 63] | ≥ 200 |  |  |  |  | Dead mice (ddY mice): no dead mice
4 | C(=C1CCNC1)c1cccc(Oc2ccccc2)c1 [Compound 64] |  |  |  | 90 |  | Duration of immobility ([3]; 1 hour before test): 40 s; Suppression of duration of immobility ([3]; vs saline): 82%; Step-through latency ([2]; 3 mg/kg oral): 150 s; responders at 3 mg/kg [2, 5]: 63%
5 | CN1CCC(=Cc2cccc(Oc3ccccc3)c2)C1 [Compound 65] | ≥ 500 | 117 | 50 | 52 |  | 
6 | CCN1CCC(=Cc2cccc(Oc3ccccc3)c2)C1 [Compound 66] | ≥ 500 |  |  |  | 82 | Step-through latency ([2]; 0.3 mg/kg oral): 221 s; responders at 0.3 mg/kg ([2]; Mus musculus, 0.3 mg/kg oral, mice with latency > 100 seconds, read-out: Ratio of memory): 75%
7 | CCN1CC(=Cc2cccc(Oc3ccccc3)c2)CC1C (centres unmarked) [Compound 75] | ≥ 500 | 160 | 50 |  | 65 | 
8 | CCN1CC(=Cc2cccc(Oc3ccccc3)c2)C(C)C1 (centres unmarked) [Compound 76] | ≥ 500 | 109 | 50 |  | 80 | 
9 | CC(C)N1CCC(=Cc2cccc(Oc3ccccc3)c2)C1 [Compound 84] | ≥ 500 | 176 | 75 |  | 75 | 
